Patent US9133525B2, “Detection of DNA sequences as risk factors for HIV infection” (priority 2012, dated 2015)

Tested on: antibiotic sensitive microorganism associated with red blood cells
Experiment: PCR amplification of DNA from red blood cells of HIV-positive patients with MSP2 Primer Pairs 1 and 2, before and after long-term antibiotic treatment
Assay type: in vivo, human (HIV-positive patients)
Description: Standard procedures for separating RBCs from buffy coat and other peripheral blood components are known. Peripheral blood was processed on a Ficoll gradient to separate the buffy coat from red blood cells. […] This lysate was prepared by repeated freeze-thawing of red blood cells isolated from the buffy coat, strong shaking by vortex, and a low speed centrifugation (1,500 g×10 mins). A pellet and supernatant fraction were obtained and tested. The primers described above only amplified DNA in the supernatant fraction, but not in the pellet.
Five HIV-positive patients were maintained on their antiretroviral therapy, but received for at least three months a daily antibiotic treatment (azithromycin 250 mg/day or doxycycline 100 mg/day). Blood samples were fractionated to recover a red blood cell fraction on day 0 and after 3 months of antibiotic.
Blood samples were obtained from African and European Patients who were HIV-negative or HIV-positive. Red blood cells were isolated from buffy coat and other blood components by separation on a Ficoll gradient as described above. […] Similar results were obtained using the primers described in Appendix 3. […] However, amplified DNA was detected in this patient using the Primer Pairs 1 and 2 shown in Appendix 2, but the amplified DNA bands were weaker than those for chronically-infected HIV-positive patients. […]

CC[C@H]1OC(=O)[C@H](C)[C@@H](O[C@H]2C[C@@](C)(OC)[C@@H](O)[C@H](C)O2)[C@H](C)[C@@H](O[C@@H]2O[C@H](C)C[C@H](N(C)C)[C@H]2O)[C@](C)(O)C[C@@H](C)CN(C)[C@H](C)[C@@H](O)[C@]1(C)O [azithromycin]
intensity of the bands amplified using these primers (HIV-positive patients, long term antibiotic treatment for more than three months, Primer Pairs 1 and 2): decrease
amount of DNA amplified after 3 months of antibiotic treatment vs day 0 (five HIV-positive patients on antiretroviral therapy, daily azithromycin 250 mg/day or doxycycline 100 mg/day for at least three months, red blood cell fraction): significantly less
